Measured values from the supplement of paper PMC11061612.

Experiments:
[1] = system: HT-1197 (Bladder Carcinoma); assay: Bliss excess, mean over the matrix (fraction); higher = more synergy
Summary of the method: (§1)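 After 24 hours at 37°C and 5% CO2 in 1536-well plates, cells in DMEM/F12 or RPMI plus 10% FBS received two-drug dose matrices for 72 hours. Viability came from CellTiter-Glo 2.0 luminescence and was scaled as inhibition, anchored at 0 by vehicle wells and at 1 by blank wells. Combination Emax is taken as the second-highest inhibition in the matrix, and Bliss excess as the observed combination effect less EA + EB − EA·EB, with EA and EB the single-agent effects.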

[2] = system: JJN-3 (Plasma Cell Myeloma); assay: as above
Summary of the method: as §1

[3] = system: MDA-MB-175-VII (Breast Carcinoma); assay: as above
Summary of the method: as §1

[4] = system: NCI-H1648 (Lung Adenocarcinoma); assay: as above
Summary of the method: as §1

[5] = system: NCI-H1975 (Lung Adenocarcinoma); assay: as above
Summary of the method: as §1

[6] = system: RS4-11 (B-Lymphoblastic Leukemia); assay: as above
Summary of the method: as §1

[7] = system: SUP-HD1 (Hodgkin's Lymphoma); assay: as above
Summary of the method: as §1

[8] = system: TOV-21G (Ovarian Carcinoma); assay: as above
Summary of the method: as §1

[9] = system: ATN-1 (T-Lymphoblastic Leukemia); assay: combination Emax (second highest fraction inhibited in the dose matrix, 72 h); higher = more inhibition; extreme values may be limits of the assay
Summary of the method: as §1

[10] = system: C2BBe1 (Colorectal Carcinoma); assay: as above
Summary of the method: as §1

GCIY (Gastric Carcinoma) = assay: as above
Summary of the method: as §1

[11] = system: HT-1197 (Bladder Carcinoma); assay: as above
Summary of the method: as §1

[12] = system: L-363 (Plasma Cell Myeloma); assay: as above
Summary of the method: as §1

[13] = system: NCI-H1048 (Small Cell Lung Carcinoma); assay: as above
Summary of the method: as §1

[14] = system: NCI-H2009 (Lung Adenocarcinoma); assay: as above
Summary of the method: as §1

[15] = system: RS4-11 (B-Lymphoblastic Leukemia); assay: as above
Summary of the method: as §1

[16] = system: SBC-5 (Small Cell Lung Carcinoma); assay: as above
Summary of the method: as §1

[17] = system: SCC90 (Head and Neck Carcinoma); assay: as above
Summary of the method: as §1

[18] = system: SW1463 (Colorectal Carcinoma); assay: as above
Summary of the method: as §1

[19] = system: TK (B-Cell Non-Hodgkin's Lymphoma); assay: as above
Summary of the method: as §1
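Wherever Bliss excess, mean over the matrix is given: after 72 h of two-drug dosing.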

| SMILES | Bliss excess [1] | Bliss excess [2] | Bliss excess [3] | Bliss excess [4] | Bliss excess [5] | Bliss excess [6] | Bliss excess [7] | Bliss excess [8] | combination Emax [9] | combination Emax [10] | combination Emax (GCIY (Gastric Carcinoma)) | combination Emax [11] | combination Emax [12] | combination Emax [13] | combination Emax [14] | combination Emax [15] | combination Emax [16] | combination Emax [17] | combination Emax [18] | combination Emax [19] |
| --- | --- | --- | --- | --- | --- | --- | --- | --- | --- | --- | --- | --- | --- | --- | --- | --- | --- | --- | --- | --- |
| CN(CCO)CC[C@H](CSc1ccccc1)Nc1ccc(S(=O)(=O)NC(=O)c2ccc(N3CCC([C@@H](O)c4ccccc4-c4ccc(Cl)cc4)CC3)cc2)cc1S(=O)(=O)C(F)(F)F [AZD4320] + CN(C)CCCOc1ccc(-c2ccc3ncc4c(c3c2)n(C2CCOCC2)c(=O)n4C)cn1 [AZD0156] (first compound max 1 µM, 7x7, partner max 1 µM) | -0.0506 | 0.0142 | -0.0322 | -0.0326 | -0.0414 | -0.0209 | -0.0754 | -0.0262 | 0.656 | 0.188 | 0.554 | 0.142 | 0.263 | 0.622 | 0.0839 | 1 | 0.102 | 0.496 | 0.233 | 0.998 |
| COc1nnc2ccc(N3CCC(c4ccc(OCCN5CCN(C)C(=O)[C@H]5C)cc4)CC3)nn12 [AZD5153] + C=CCn1c(=O)c2cnc(Nc3ccc(N4CCN(C)CC4)cc3)nc2n1-c1cccc(C(C)(C)O)n1 [AZD1775] (first compound max 1 µM, partner max 1 µM) | -0.0045 | -0.0673 | -0.0255 | -0.0816 | 0.0251 | 0.0184 | -0.114 | -0.0246 | 0.98 | 0.547 | 0.605 | 0.724 | 0.935 | 0.787 | 0.703 | 0.979 | 0.846 | 0.714 | 0.478 | 0.97 |
| COc1nnc2ccc(N3CCC(c4ccc(OCCN5CCN(C)C(=O)[C@H]5C)cc4)CC3)nn12 [AZD5153] + CC1(C)CCC(CN2CCN(c3ccc(C(=O)NS(=O)(=O)c4ccc(NCC5CCOCC5)c([N+](=O)[O-])c4)c(Oc4cnc5[nH]ccc5c4)c3)CC2)=C(c2ccc(Cl)cc2)C1 [Venetoclax] (first compound max 1 µM, 7x7, partner max 1 µM) | -0.0708 | 0.0278 | 0.0346 | -0.062 | -0.0579 | -0.0179 | -0.0316 | -0.0264 | 0.516 | 0.378 | 0.505 | 0.656 | 0.528 | 0.492 | 0.373 | 1 | 0.518 | 0.533 | 0.581 | 0.994 |
| COc1nnc2ccc(N3CCC(c4ccc(OCCN5CCN(C)C(=O)[C@H]5C)cc4)CC3)nn12 [AZD5153] + CCN(CCO)CCCOc1ccc2c(Nc3cc(CC(=O)Nc4cccc(F)c4)[nH]n3)ncnc2c1 [AZD2811] (first compound max 1 µM, 7x7, partner max 1 µM) | -0.0034 | 0.0098 | 0.0618 | -0.0494 | -0.005 | -0.0195 | -0.0586 | -0.0249 | 0.734 | 0.558 | 0.63 | 0.742 | 0.589 | 0.514 | 0.382 | 0.977 | 0.718 | 0.452 | 0.563 | 0.371 |
| COc1nnc2ccc(N3CCC(c4ccc(OCCN5CCN(C)C(=O)[C@H]5C)cc4)CC3)nn12 [AZD5153] + C[C@@H]1COCCN1C2=NC(=NC(=C2)C3(CC3)[S@](=N)(=O)C)C4=C5C=CNC5=NC=C4 [AZD6738] (first compound max 1 µM, 7x7, partner max 10 µM) | -0.0082 | -0.0394 | 0.0118 | -0.0572 | -0.0013 | 0.0145 | -0.0281 | -0.0018 | 0.984 | 0.579 | 0.794 | 0.724 | 0.849 | 0.678 | 0.645 | 0.944 | 0.83 | 0.416 | 0.555 | 0.968 |
| COc1nnc2ccc(N3CCC(c4ccc(OCCN5CCN(C)C(=O)[C@H]5C)cc4)CC3)nn12 [AZD5153] + Cc1c2c(nn1C)CSCc1cc(n(C)n1)CSc1cc(c3ccccc3c1)OCCCc1c(C(=O)O)n(C)c3c-2c(Cl)ccc13 [AZD5991] (first compound max 1 µM, 7x7, partner max 1 µM) | 0.0698 | -0.0268 | -0.0015 | -0.0712 | -0.0138 | 0.0102 | -0.0414 | -0.0337 | 0.999 | 0.452 | 0.538 | 0.966 | 0.994 | 0.627 | 0.379 | 0.937 | 0.988 | 0.9 | 0.581 | 0.677 |
| COc1nnc2ccc(N3CCC(c4ccc(OCCN5CCN(C)C(=O)[C@H]5C)cc4)CC3)nn12 [AZD5153] + Cn1cnc2c(F)c(Nc3ccc(Br)cc3Cl)c(C(=O)NOCCO)cc21 [Selumetinib] (first compound max 1 µM, 7x7, partner max 10 µM) | 0.108 | -0.0076 | 0.019 | 0.0093 | -0.0045 | -0.0454 | -0.0019 | -0.02 | 0.508 | 0.701 | 0.598 | 0.806 | 0.709 | 0.449 | 0.716 | 0.593 | 0.662 | 0.916 | 0.732 | 0.232 |
| Cc1c2c(nn1C)CSCc1cc(n(C)n1)CSc1cc(c3ccccc3c1)OCCCc1c(C(=O)O)n(C)c3c-2c(Cl)ccc13 [AZD5991] + C1CN(CCC1(C(=O)N[C@@H](CCO)C2=CC=C(C=C2)Cl)N)C3=NC=NC4=C3C=CN4 [Capivasertib] (first compound max 1 µM, 7x7, partner max 3 µM) | -0.0002 | -0.041 | 0.0261 | -0.0326 | 0.0322 | -0.0148 | -0.0833 | -0.0249 | 0.989 | 0.251 | 0.36 | 0.419 | 1 | 1 | 0.158 | 0.519 | 0.471 | 0.966 | 0.216 | 0.17 |
| Cc1c2c(nn1C)CSCc1cc(n(C)n1)CSc1cc(c3ccccc3c1)OCCCc1c(C(=O)O)n(C)c3c-2c(Cl)ccc13 [AZD5991] + C=CCn1c(=O)c2cnc(Nc3ccc(N4CCN(C)CC4)cc3)nc2n1-c1cccc(C(C)(C)O)n1 [AZD1775] (first compound max 1 µM, partner max 1 µM) | -0.0866 | -0.0331 | -0.0223 | -0.0359 | -0.0523 | 0.0066 | -0.106 | -0.0865 | 1 | 0.341 | 0.545 | 0.593 | 1 | 1 | 0.75 | 0.995 | 0.694 | 0.952 | 0.471 | 0.927 |
| Cc1c2c(nn1C)CSCc1cc(n(C)n1)CSc1cc(c3ccccc3c1)OCCCc1c(C(=O)O)n(C)c3c-2c(Cl)ccc13 [AZD5991] + CC1(C)CCC(CN2CCN(c3ccc(C(=O)NS(=O)(=O)c4ccc(NCC5CCOCC5)c([N+](=O)[O-])c4)c(Oc4cnc5[nH]ccc5c4)c3)CC2)=C(c2ccc(Cl)cc2)C1 [Venetoclax] (first compound max 1 µM, 7x7, partner max 1 µM) | -0.0257 | 0.0514 | -0.0306 | -0.0482 | -0.0053 | 0.0963 | 0.0788 | -0.0115 | 0.968 | 0.23 | 0.343 | 0.148 | 1 | 0.954 | 0.151 | 1 | 0.231 | 0.934 | 0.131 | 1 |
| Cc1c2c(nn1C)CSCc1cc(n(C)n1)CSc1cc(c3ccccc3c1)OCCCc1c(C(=O)O)n(C)c3c-2c(Cl)ccc13 [AZD5991] + CCN(CCO)CCCOc1ccc2c(Nc3cc(CC(=O)Nc4cccc(F)c4)[nH]n3)ncnc2c1 [AZD2811] (first compound max 1 µM, 7x7, partner max 1 µM) | -0.0381 | 0.0225 | 0.0441 | 0.0051 | 0.0047 | -0.0061 | 0.0311 | 0.0576 | 0.976 | 0.277 | 0.449 | 0.2 | 1 | 1 | 0.754 | 0.991 | 0.78 | 0.908 | 0.268 | 0.289 |
| Cc1c2c(nn1C)CSCc1cc(n(C)n1)CSc1cc(c3ccccc3c1)OCCCc1c(C(=O)O)n(C)c3c-2c(Cl)ccc13 [AZD5991] + CN(C)CCCOc1ccc(-c2ccc3ncc4c(c3c2)n(C2CCOCC2)c(=O)n4C)cn1 [AZD0156] (first compound max 1 µM, 7x7, partner max 1 µM) | -0.0357 | -0.0028 | 0.0076 | -0.0433 | -0.0241 | -0.0177 | -0.122 | -0.0213 | 0.929 | 0.288 | 0.465 | 0.217 | 1 | 0.984 | 0.182 | 0.565 | 0.497 | 0.904 | 0.204 | 0.313 |
| Cc1c2c(nn1C)CSCc1cc(n(C)n1)CSc1cc(c3ccccc3c1)OCCCc1c(C(=O)O)n(C)c3c-2c(Cl)ccc13 [AZD5991] + C[C@@H]1COCCN1C2=NC(=NC(=C2)C3(CC3)[S@](=N)(=O)C)C4=C5C=CNC5=NC=C4 [AZD6738] (first compound max 1 µM, 7x7, partner max 10 µM) | -0.104 | -0.0071 | 0.0187 | 0.0052 | 0.0671 | -0.0197 | -0.0279 | 0.0322 | 1 | 0.452 | 0.808 | 0.466 | 1 | 1 | 0.466 | 1 | 0.9 | 0.928 | 0.506 | 0.895 |
